This passage reports IC50 results from US11524960B2, “Heterobicyclic inhibitors of MAT2A and methods of use for treating cancer” (AGIOS PHARMACEUTICALS, INC., priority 2018, dated 2022).

Some results are limits rather than exact numbers.

In one assay the test system is HCT116 MTAP+/+. Nature of the assay: Inhibition of cellular proliferation (Cell Titer Glo), HCT116 MTAP+/+. The class given is cell-based, human. Particulars: Homo sapiens, HCT-116, 96 h, 4 days, IC50 score, read-out: 4 Day Relative Growth Inhibition (MTAP +/+; Example 277). Summed up: (§1)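 Isogenic HCT116 lines, MTAP+/+ and MTAP−/−, treated 24 h after plating with 10-point 3-fold compound dilutions including DMSO only, then grown 4 days at 37 °C/5% CO2. Cell Titer Glo ATP luminescence, blank-subtracted and normalised to 0.2% DMSO control, gave percent change in proliferation versus log concentration.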
A general note: ATP-based viability assays read luminescence as a measure of living cells.

In the next assay the test system is HCT116 MTAP−/−. Nature of the assay: Inhibition of cellular proliferation (Cell Titer Glo), HCT116 MTAP−/−. The class given is cell-based, human. Conditions: Homo sapiens, HCT-116, 96 h, 4 days, IC50 score, read-out: 4 Day Relative Growth Inhibition (MTAP −/−; Example 277). A digest of the protocol: as §1
Assay [1] relates to SAM in HCT116 human colon carcinoma cell line engineered to delete the MTAP gene (MTAP −/−). Nature of the assay: Cellular assay of target engagement (SAM) by LC-MS/MS. The class given is cell-based. Conditions: Homo sapiens, HCT-116, 72 h, IC50 score, read-out: Cell 72 h SAM Inhibition (MTAP −/−; Example 276). Summed up: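 MTAP-deleted HCT116 cells were dosed 24 h after plating with a 10-point 3-fold compound series in DMSO, then incubated 72 h at 37 °C/5% CO2. Cells were extracted in cold 80% methanol with acetic acid and d3-SAM internal standard. SAM was quantified by LC-MS/MS MRM (m/z 399.2→250.1).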

For the next assay, the target named is T1, MAT2A homodimer (Homo sapiens, UniProt P31153).
T1 construct: inferred from Ni sepharose purification and imidazole elution; made in house; host or cells: Sf9 insect cells, recombinant baculovirus (Bac to Bac, pFASTBAC1)
T1 sequence (P31153 whole entry): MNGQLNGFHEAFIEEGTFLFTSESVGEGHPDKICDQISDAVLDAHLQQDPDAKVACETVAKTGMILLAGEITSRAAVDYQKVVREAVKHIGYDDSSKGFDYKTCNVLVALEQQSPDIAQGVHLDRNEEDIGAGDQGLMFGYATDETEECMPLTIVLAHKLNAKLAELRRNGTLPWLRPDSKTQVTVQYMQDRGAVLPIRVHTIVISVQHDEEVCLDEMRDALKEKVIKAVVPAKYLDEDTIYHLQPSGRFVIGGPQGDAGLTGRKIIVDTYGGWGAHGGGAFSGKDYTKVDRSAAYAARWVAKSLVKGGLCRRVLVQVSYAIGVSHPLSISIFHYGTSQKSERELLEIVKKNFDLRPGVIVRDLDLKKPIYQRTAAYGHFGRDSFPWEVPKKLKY
Nature of the assay: Biochemical assay: inhibition of MAT2A (phosphate release, PiColorLock Gold). Conditions: MAT2A IC50 score; read-out: Enzyme Inhibition (Example 275). A digest of the protocol: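 Baculovirus/Sf9-expressed, Ni-purified MAT2A at 4 µg/mL was preincubated with compound for 60 min at 25 °C in 50 mM Tris pH 8.0, 50 mM KCl, 15 mM MgCl2, 0.3 mM EDTA, 0.005% BSA. Substrate mix (500 μM ATP, 400 μM L-methionine) was added and the reaction ran 60 min at 25 °C. Phosphate released stoichiometrically with SAM was measured colorimetrically against a phosphate standard curve.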

For the compound `Cn1cc2cc(-n3cc4ncc(OCC(F)F)nc4c(-c4ccc(OC(F)F)cc4)c3=O)ccc2n1` [Example 139-A, 2-(2,2-difluoroethoxy)-8-(4-(difluoromethoxy)phenyl)-6-(2-methyl-2H-indazol-5-yl)pyrido[3,4-b]pyrazin-7(6H)-one], the IC50 in the assay on HCT116 MTAP+/+ was 100 to 10000 nM; in the assay on HCT116 MTAP−/− it was below 100 nM; in assay [1] it was below 100 nM; at MAT2A homodimer it was below 100 nM.
Turning to `CCOc1cnc2cn(-c3ccc4nn(C)cc4c3)c(=O)c(-c3ccc(OC)cc3)c2n1` [Example 140-A], the IC50 was above 10000 nM in the assay on HCT116 MTAP+/+, below 100 nM in the assay on HCT116 MTAP−/−, below 100 nM in assay [1] and below 100 nM at MAT2A homodimer.
As to `CCn1cnc2ccc(-n3cc4cnc(NCC(F)(F)F)nc4c(-c4ccc(Cl)cc4)c3=O)cc21` [Example 141, 8-(4-chlorophenyl)-6-(1-ethyl-1H-benzo[d]imidazol-6-yl)-2-((2,2,2-trifluoroethyl)amino)pyrido[4,3-d]pyrimidin-7(6H)-one], the IC50 with HCT116 MTAP+/+ was above 10000 nM; in the assay on HCT116 MTAP−/−, below 100 nM; in assay [1] it was below 100 nM; at MAT2A homodimer, below 100 nM.
Regarding `COc1ccc(-c2c(=O)n(-c3ccc4nn(C)cc4c3)cc3ncc(OCC(F)F)nc23)cc1` [Example 141-A], the IC50 is 100 to 10000 nM in the assay on HCT116 MTAP+/+, below 100 nM in the assay on HCT116 MTAP−/−, below 100 nM in assay [1] and below 100 nM at MAT2A homodimer.
In the case of `CCOc1cnc2cn(-c3ccc4ncccc4c3)c(=O)c(-c3ccc(Cl)cc3)c2n1` [Example 142-A], the IC50 in the assay on HCT116 MTAP+/+ was above 10000 nM; in the assay with HCT116 MTAP−/− it was 100 to 10000 nM; in assay [1], 100 to 1000 nM; at MAT2A homodimer it was below 100 nM.
The matching figures for `COc1ccc(-c2c(=O)n(-c3ccc4nccn4c3)cc3cnc(NCC(F)(F)F)nc23)cc1` [Example 143, 6-(imidazo[1,2-a]pyridin-6-yl)-8-(4-methoxyphenyl)-2-((2,2,2-trifluoroethyl)amino)pyrido[4,3-d]pyrimidin-7(6H)-one]: above 10000 nM, 100 to 10000 nM, 100 to 1000 nM and below 100 nM.
The matching figures for `Cn1cc2cc(-n3cc4ncc(OCC(F)F)nc4c(-c4ccc(OC(F)(F)F)nc4)c3=O)ccc2n1` [Example 143-A]: 100 to 10000 nM, below 100 nM, below 100 nM and below 100 nM.
Taken in the same sequence, the figures for `COc1ccc(-c2c(=O)n(-c3ccc4nccnc4c3)cc3cnc(NCC(F)(F)F)nc23)cc1` [Example 144, 8-(4-methoxyphenyl)-6-(quinoxalin-6-yl)-2-((2,2,2-trifluoroethyl)amino)pyrido[4,3-d]pyrimidin-7(6H)-one] were above 10000 nM, 100 to 10000 nM, 100 to 1000 nM and below 100 nM.
In the case of `Cn1cc2cc(-n3cc4ncc(OCC(F)F)nc4c(-c4ccc(OC(F)F)nc4)c3=O)ccc2n1` [Example 144-A], the IC50 was 100 to 10000 nM with HCT116 MTAP+/+, 100 to 10000 nM in the assay with HCT116 MTAP−/−, below 100 nM in assay [1] and below 100 nM at MAT2A homodimer.
For the compound `COc1ccc(-c2c(=O)n(-c3ccc4c(c3)N(C)CCO4)cc3cnc(NCC(F)(F)F)nc23)cc1` [Example 145, 8-(4-methoxyphenyl)-6-(4-methyl-3,4-dihydro-2H-benzo[b][1,4]oxazin-6-yl)-2-((2,2,2-trifluoroethyl)amino)pyrido[4,3-d]pyrimidin-7(6H)-one], the IC50 in the assay with HCT116 MTAP+/+ is above 10000 nM; with HCT116 MTAP−/− it was below 100 nM; in assay [1] it was below 100 nM; on MAT2A homodimer, below 100 nM.
Take `CCOc1cnc2cn(-c3ccc4nn(C)cc4c3)c(=O)c(-c3ccc(OC(F)F)cc3)c2n1` [Example 145-A]: the IC50 in the assay with HCT116 MTAP+/+ is 100 to 10000 nM; with HCT116 MTAP−/−, below 100 nM; in assay [1] it was below 100 nM; at MAT2A homodimer it was below 100 nM.
Regarding `Cn1cc2cc(-n3cc4ncc(OCC(F)F)nc4c(-c4ccc(Cl)cc4)c3=O)ccc2n1` [Example 146-A], the IC50 is 100 to 10000 nM in the assay with HCT116 MTAP+/+, below 100 nM in the assay on HCT116 MTAP−/−, below 100 nM in assay [1] and below 100 nM at MAT2A homodimer.
